In patent US5880258A (dated 1999):
*1 amine or outer side, *2 acyl side, *3 side chain or, on linkers, in order; H or OH if unused. Where a SMILES comes first, the peptide text is derived from it. [ ]: non-standard residue; d: D form. The star is where a group is joined. sY = N[C@@H](Cc1ccc(OS(=O)(=O)O)cc1)C(=O)O; Suc = O=C(CCC(=O)[*:2])[*:1]; X1 = NS(=O)(=O)CCN*; Ava = NCCCCC(=O)O

Target: thrombin (Homo sapiens, UniProt P00734)
Assay: anti-thrombin activity; clotting assay (coagulation time with fibrinogen as substrate)
Assay type: biochemical
Set-up: 100 μl of human-thrombin prepared at 10 NIH units/ml in aforesaid buffer
Settings: for Potency: calculated using the definition that HV-1 (54-65) potency is 1; for IC50: concentration corresponding to 50 thrombin units, human-thrombin 10 NIH units/ml, human-fibrinogen 6 mg/ml, read-out: 50% Inhibition Concentration (converted)
Description: Measurement of anti-thrombin activity was done by looking at anti-coagulant activity as an index using fibrinogen as the substrate. That is, the compounds were dossolved in 200 μl of 0.1 mM Tris-HCl buffer (pH7.5) containing 0.1% polyethyleneglycol-6000, 100 μl of human-thrombin prepared at 10 NIH units/ml in aforesaid buffer, were added 200 μl of human-fibrinogen (Sigma) prepared at 6 mg/ml in aforesaid tris-hydrochloride buffer were added, and the coagulation time of the reaction mixtures were measured. For measuring of coagulation times, coagulation time analyzer (Amelung KC10A) was used. Obtained values were converted into units by using a previously prepared thrombin standard curve. Graphs were prepared by plotting the converted values on the vertical axis, and the concentrations of the compounds on the horizontal axis. In the graphs, the thrombin unit was defined as 100 at a compound concentration of 0. The concentration of compounds corresponding to 50 units were defined as 50% inhibitory concentrations of compounds.

| SMILES | Potency | IC50 [µM] |
| --- | --- | --- |
| CC[C@H](C)[C@H](NC(=O)[C@@H]1CCCN1C(=O)[C@H](CCC(=O)O)NC(=O)CCC(=O)O)C(=O)N1CCC[C@H]1C(=O)N[C@@H](CCC(=O)O)C(=O)N[C@@H](Cc1ccc(OS(=O)(=O)O)cc1)C(=O)N[C@@H](Cc1ccc(OS(=O)(=O)O)cc1)C(=O)N[C@@H](CC(C)C)C(=O)N[C@@H](CCC(N)=O)C(=O)O [Sulfated form of (H), Suc--Glu--Pro--Ile--Pro--Glu--Tyr(SO3 H)--Tyr(SO3 H)--Leu--Gln--OH] (Suc-EPIPE[sY][sY]LQ-OH) | < 0.05 | > 142 |
| CC[C@H](C)[C@H](NC(=O)[C@@H]1CCCN1C(=O)[C@H](CCC(=O)O)NC(=O)[C@H](Cc1ccccc1)NC(=O)CCC(=O)O)C(=O)N1CCC[C@H]1C(=O)N[C@@H](CCC(=O)O)C(=O)N[C@@H](Cc1ccc(OS(=O)(=O)O)cc1)C(=O)N[C@@H](Cc1ccc(OS(=O)(=O)O)cc1)C(=O)O [Sulfated form of (I), Suc--Phe--Glu--Pro--Ile--Pro--Glu--Tyr(SO3 H)--Tyr(SO3 H)--OH] (Suc-FEPIPE[sY][sY]-OH) | 1.62 | 3.1 |
| CC[C@H](C)[C@H](NC(=O)[C@@H]1CCCN1C(=O)[C@H](CCC(=O)O)NC(=O)[C@H](Cc1ccccc1)NC(=O)[C@H](CC(=O)O)NC(=O)CCC(=O)O)C(=O)N1CCC[C@H]1C(=O)N[C@@H](CCC(=O)O)C(=O)N[C@@H](Cc1ccc(OS(=O)(=O)O)cc1)C(=O)N[C@@H](Cc1ccc(OS(=O)(=O)O)cc1)C(=O)N[C@@H](CC(C)C)C(=O)N[C@@H](CCC(N)=O)C(=O)O [Sulfated form of (F), Suc--Asp--Phe--Glu--Pro--Ile--Pro--Glu--Tyr(SO3 H)--Tyr(SO3 H)--Leu--Gln--OH] (Suc-DFEPIPE[sY][sY]LQ-OH) | 1.32 | 3 |
| CC[C@H](C)[C@H](NC(=O)[C@H](CCC(=O)O)NC(=O)[C@H](CCC(=O)O)NC(=O)[C@H](Cc1ccccc1)NC(=O)[C@H](CC(=O)O)NC(=O)CN)C(=O)N1CCC[C@H]1C(=O)N[C@@H](Cc1ccc(O)cc1)C(=O)N[C@@H](Cc1ccc(OS(=O)(=O)O)cc1)C(=O)N[C@@H](Cc1ccc(O)cc1)C(=O)N[C@@H](CC(C)C)C(=O)N[C@@H](CCC(N)=O)C(=O)O (single isomer, unassigned) [Sulfated form of (B) peak 2, Gly--Asp--Phe--Glu--Glu--Ile--Pro--Tyr--Tyr(SO3 H)--Tyr--Leu--Gln] |  | 0.63 |
| CC[C@H](C)[C@H](NC(=O)[C@@H]1CCCN1C(=O)[C@H](CCC(=O)O)NC(=O)[C@H](Cc1ccccc1)NC(=O)CCC(=O)O)C(=O)N1CCC[C@H]1C(=O)N[C@@H](CCC(=O)O)C(=O)N[C@@H](Cc1ccc(O)cc1)C(=O)N[C@@H](Cc1ccc(O)cc1)C(=O)N[C@@H](CC(C)C)C(=O)NCCS(N)(=O)=O [(S)] (Suc-FEPIPEYYL-X1) |  | 72.4 |
| CC[C@H](C)[C@H](NC(=O)[C@@H]1CCCN1C(=O)[C@H](CCC(=O)O)NC(=O)[C@H](Cc1ccccc1)NC(=O)CCC(=O)O)C(=O)N1CCC[C@H]1C(=O)N[C@@H](CCC(=O)O)C(=O)N[C@@H](Cc1ccc(OS(=O)(=O)O)cc1)C(=O)N[C@@H](Cc1ccc(OS(=O)(=O)O)cc1)C(=O)NCCCCC(=O)O [Sulfated form of (L), Suc--Phe--Glu--Pro--Ile--Pro--Glu--Tyr(SO3 H)--Tyr(SO3 H)--NH(CH2)4 COOH] (Suc-FEPIPE[sY][sY][Ava]-OH) |  | 2.22 |
| CCNC(=O)[C@H](CC(C)C)NC(=O)[C@H](Cc1ccc(O)cc1)NC(=O)[C@H](Cc1ccc(O)cc1)NC(=O)[C@H](CCC(=O)O)NC(=O)[C@@H]1CCCN1C(=O)[C@@H](NC(=O)[C@@H]1CCCN1C(=O)[C@H](CCC(=O)O)NC(=O)[C@H](Cc1ccccc1)NC(=O)CCC(=O)O)[C@@H](C)CC [(R)] (Suc-FEPIPEYYL-NHEt) | 0.18 | 27.8 |
| CC[C@H](C)[C@H](NC(=O)[C@@H]1CCCN1C(=O)[C@H](CCC(=O)O)NC(=O)[C@H](Cc1ccccc1)NC(=O)CCC(=O)O)C(=O)N1CCC[C@H]1C(=O)N[C@@H](CCC(=O)O)C(=O)N[C@@H](Cc1ccc(O)cc1)C(=O)N[C@@H](Cc1ccc(O)cc1)C(=O)NCCCCC(=O)O [(L)] (Suc-FEPIPEYY[Ava]-OH) |  | 12.4 |
